The source of these data is US7850970B2, “Inhibitors of serine protease activity and their use in methods and compositions for treatment of bacterial infections” (priority 2003, dated 2010).

“And” between values parts separate entries of the source, which are not always exact repeats. Identical values can stand only once. Residues, ends and D or L forms follow the SMILES beside them. *: point of attachment. CH2Cl = ClC*

Assay [1] deals with MAC (strain Mycobacterium avium 9141). Briefly: MAC infection of human monocyte-derived macrophages, colony counts. Particulars: FIG. 1. The class given is cell-based.
Assay [2] relates to TB (strain H37RV). The class given is cell-based, m. tuberculosis.
In assay [3] the test system is TB (strain H37RV). The class given is cell-based, m. tuberculosis. Particulars: AAT 5.0 mg/ml-exposed MDM; control MDM (no AAT) 20% and 17%.
For assay [4], the system named is interleukin-1 beta. Description: Stimulated interleukin-1 beta production in whole human blood. Particulars: whole human blood diluted 1:4, heat-killed Staphylococcus epidermidis 1:1000, 24 hrs, all concentrations tested, FIG. 5. The class given is cell-based. The protocol: Design: Venipuncture was performed on 3 healthy volunteers using a 21-gauge needle, and the venous blood was aspirated into a heparinized tube. Blood was then aliquoted into 6 milliliter polypropylene tubes and diluted 1:4 with sterile RPMI tissue culture medium alone (Control), diluted 1:4 in medium containing heat-killed Staphylococcus epidermidis at a final concentration of 1:1000 as a stimulus (Staph), or into tubes containing Staphylococcus epidermidis and alpha-1-antitrypsin (AAT, Aralast® from Baxter). All cultures were then incubated ×24 hrs at 37° C./5% CO2). Following incubation, the samples were centrifuged ×1,500 g, and the supernatants collected. Supernatants were assayed for interleukin-1 beta concentration using a validated electrochemiluminescence apparatus that quantifies cytokine proteins.

The subject of assay [5] is MAC (strain Mycobacterium avium 9141). Description: MAC infection of human monocyte-derived macrophages, direct observation and counting of infected cells. The class given is cell-based. Particulars: AAT 5.0 mg/ml-exposed MDM, control MDM (no AAT) 17%.

In the case of `CC(C)[C@H](NC(=O)[C@@H]1CCCN1C(=O)[C@H](C)NC(=O)[C@H](C)N)C(=O)CCl` [AAT mimic, ala-ala-pro-val-chloromethyl ketone, reference compound] (H-AAPV-CH2Cl), the “effect on MAC infection of MDM” value in assay [1] is given as “confirm the AAT data”.

Turning to α1-antitrypsin [AAT], the “TB counts per ml” value in assay [2] (AAT-exposed MDM cultures, control MDM cultures 1.6×10^5 per ml) was 0.57×10^5 per ml. Further, the “inhibitory effect on cell-associated TB counts” value in assay [2] (AAT-exposed versus control MDM cultures) was 64%. The “percent of cells infected with m. tuberculosis” value in assay [3] was 4% and 6%. Also, the “Staph-stimulated interleukin-1 beta production” value in assay [4] is reported as “significantly inhibited”. Besides, the “percent of cells infected” value in assay [5] is on record as 10%. Also, the “inhibition of infection of MDM with MAC (mean effect)” value in assay [1] (4 separate experiments) is given as “approximately 55%”.
